Target: T1, Recombinant human mPGES-1 (Homo sapiens, UniProt O14684)
T1 construct: made in house; host or cells: CHO cells (crude microsomal fractions)
T1 sequence (O14684 1-152): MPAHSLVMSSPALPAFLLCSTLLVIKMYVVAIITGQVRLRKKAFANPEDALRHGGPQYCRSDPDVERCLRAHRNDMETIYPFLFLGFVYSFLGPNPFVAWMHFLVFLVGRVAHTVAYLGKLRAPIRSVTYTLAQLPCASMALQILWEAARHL
Experiment: In-vitro screening of mPGES-1 inhibitors (inhibition of PGE2 formation from PGH2, HTRF detection)
Assay type: biochemical
Settings: mPGES-1 enzyme; for inhibition at 1 µM: 1 μM test compound, read-out: Percentage inhibition at 1 μM; for inhibition at 10 µM: 10 μM test compound, read-out: Percentage inhibition at 10 μM; for IC50: class symbols
Summary of the method: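 Crude CHO-expressed microsomes (40–60 μg/mL protein) preincubated 10 min with compound in 0.1 M potassium phosphate/2 mM EDTA containing 2.5 mM GSH, 0.5% DMSO final. PGH2 (15 μM) reacted 1 min, stopped with stannous chloride. PGE2 quantified by HTRF, IC50 from nonlinear regression of percent inhibition.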

SMILES | inhibition at 1 µM (crude microsomal fractions) [%] | inhibition at 10 µM (crude microsomal fractions) [%] | IC50 [nM] | inhibition at 3 µM (3 μM test compound, crude microsomal fractions, read-out: Percentage inhibition at 3 μM) [%]
O=C(NCc1ccc(Cl)c(-c2nn(-c3ccc(C(F)(F)F)cc3)c(=O)[nH]2)c1)c1ccccc1F [Example-104, N-(4-Chloro-3-(5-oxo-1-(4-(trifluoromethyl)phenyl)-4,5-dihydro-1H-1,2,4-triazol-3-yl)benzyl)-2-fluorobenzamide] | 96.9 | 99.5 | < 50 | 
O=C(NCc1ccc(Cl)c(-n2nc(-c3ccc(C#Cc4cccc(C(F)(F)F)c4)cc3F)[nH]c2=O)c1)C1CC1 [Example-80, N-(4-Chloro-3-(3-(2-fluoro-4-((3-(trifluoromethyl)phenyl)ethynyl)phenyl)-5-oxo-4,5-dihydro-1H-1,2,4-triazol-1-yl)benzyl)cyclopropanecarboxamide] | 97 | 97.1 | < 50 | 
O=c1[nH]c(-c2c(F)cccc2Cl)nn1-c1ccc(C#Cc2ccc(N3CCOCC3)nc2)cc1 [Example-16, 5-(2-Chloro-6-fluorophenyl)-2-(4-{[6-(morpholin-4-yl)pyridin-3-yl]ethynyl}phenyl)-2,4-dihydro-3H-1,2,4-triazol-3-one] | 40.9 | 92.3 |  | 
CC(C)(C)C(=O)NCc1ccc(Cl)c(-c2nn(C3CCCCC3)c(=O)[nH]2)c1F [Example-103, N-(4-Chloro-3-(1-cyclohexyl-5-oxo-4,5-dihydro-1H-1,2,4-triazol-3-yl)-2-fluorobenzyl)pivalamide] | 19.9 | 51.1 |  | 
CC(C)(C)C(=O)NCc1ccc(Cl)c(-n2nc(-c3ccc(C#CC4CC4)cc3)[nH]c2=O)c1F [Example-112, N-(4-Chloro-3-(3-(4-(2-cyclopropylethynyl)phenyl)-4,5-dihydro-5-oxo-1,2,4-triazol-1-yl)-2-fluorobenzyl)pivalamide] | 99.5 | 99.8 | < 50 | 
O=c1[nH]c(-c2cc(CNS(=O)(=O)C3CC3)ccc2Cl)nn1-c1ccc(C(F)(F)F)cc1 [Example-102, N-(4-Chloro-3-(5-oxo-1-(4-(trifluoromethyl)phenyl)-4,5-dihydro-1H-1,2,4-triazol-3-yl)benzyl)cyclopropanesulfonamide] | 96.5 | 98 | < 50 | 
CC(C)(C)C(=O)NCc1ccc(Cl)c(-c2nn(-c3ccc(F)c(Cl)c3)c(=O)[nH]2)c1 [Example-139, N-(4-Chloro-3-(1-(3-chloro-4-fluorophenyl)-4,5-dihydro-5-oxo-1H-1,2,4-triazol-3-yl)benzyl)pivalamide] | 93.9 | 99.1 | < 50 | 
COCC(C)(C)C(=O)NCc1ccc(Cl)c(-c2nn(-c3ccc(C(F)(F)F)cc3)c(=O)[nH]2)c1 [Example-122, N-(4-Chloro-3-(1-(4-(trifluoromethyl)phenyl)-4,5-dihydro-5-oxo-1H-1,2,4-triazol-3-yl)benzyl)-3-methoxy-2,2-dimethylpropanamide] | 92.2 | 93.5 | < 50 | 
CC(C)C(=O)NCc1ccc(Cl)c(-n2nc(-c3ccc(C#CC(C)(C)C)c(F)c3)[nH]c2=O)c1 [Example-149, N-(4-Chloro-3-(3-(3-fluoro-4-(3,3-dimethylbut-1-ynyl)phenyl)-4,5-dihydro-5-oxo-1,2,4-triazol-1-yl)benzyl)isobutyramide] | 98.3 | 94.6 | < 50 | 
CC(C)(C)C(=O)NCc1ccc(Cl)c(-c2nn(-c3ccc(C#CC4CC4)cc3F)c(=O)[nH]2)c1 [Example-181, N-(4-Chloro-3-(1-(4-(2-cyclopropylethynyl)-2-fluorophenyl)-4,5-dihydro-5-oxo-1H-1,2,4-triazol-3-yl)benzyl)pivalamide] | 88.2 | 94.3 | < 50 | 
CC(C)(C)C(=O)NCc1ccc(Cl)c(-c2nn(C(C)(C)C)c(=O)[nH]2)c1 [Example-121, N-(3-(1-tert-Butyl-4,5-dihydro-5-oxo-1H-1,2,4-triazol-3-yl)-4-chlorobenzyl)pivalamide] | 16.3 | 72.5 |  | 
CC(C)(CO)C(=O)NCc1ccc(Cl)c(-c2nn(-c3ccc(C(F)(F)F)cc3)c(=O)[nH]2)c1 [Example-115, N-(4-Chloro-3-(1-(4-(trifluoromethyl)phenyl)-4,5-dihydro-5-oxo-1H-1,2,4-triazol-3-yl)benzyl)-3-hydroxy-2,2-dimethylpropanamide] | 96.5 | 98.2 | < 50 | 
CC(C)(C)C(=O)NCc1ccc(Cl)c(-n2nc(-c3ccc(C(F)(F)F)cc3)[nH]c2=O)c1 [Example-145, N-(4-Chloro-3-(3-(4-(trifluoromethyl)phenyl)-4,5-dihydro-5-oxo-1,2,4-triazol-1-yl)benzyl)pivalamide] | 94.2 | 98.9 | < 50 | 

Continued, values first:

inhibition at 1 µM (crude microsomal fractions) [%] | inhibition at 10 µM (crude microsomal fractions) [%] | IC50 [nM] | inhibition at 3 µM (3 μM test compound, crude microsomal fractions, read-out: Percentage inhibition at 3 μM) [%] | SMILES
98.7 |  | < 50 | 98.5 | COc1cc(-n2nc(-c3cc(CNC(=O)C4CC4)ccc3Cl)[nH]c2=O)ccc1-c1nc(-c2ccc(Cl)cc2)no1 [Example-57, N-(4-Chloro-3-(1-(4-(3-(4-chlorophenyl)-1,2,4-oxadiazol-5-yl)-3-methoxyphenyl)-5-oxo-4,5-dihydro-1H-1,2,4-triazol-3-yl)benzyl)cyclopropanecarboxamide]
96 | 95.8 | 50 to 100 |  | O=c1[nH]c(-c2c(F)cccc2Cl)nn1-c1ccc(C#Cc2ccncc2Cl)cc1 [Example-14, 5-(2-Chloro-6-fluorophenyl)-2-{4-[(3-chloropyridin-4-yl)ethynyl]phenyl}-2,4-dihydro-3H-1,2,4-triazol-3-one]
59.8 | 72.1 |  |  | COc1cc(-n2nc(-c3c(F)cccc3Cl)[nH]c2=O)ccc1C(=O)Nc1nc2ccccc2[nH]1 [Example-46, N-(1H-Benzo[d]imidazol-2-yl)-4-(3-(2-chloro-6-fluorophenyl)-5-oxo-4,5-dihydro-1H-1,2,4-triazol-1-yl)-2-methoxybenzamide]
74.4 | 88.9 | > 100 |  | COc1cc(-n2nc(-c3c(F)cccc3Cl)[nH]c2=O)ccc1C(=O)NCc1ccccc1C(F)(F)F [Example-25, 4-[3-(2-Chloro-6-fluorophenyl)-5-oxo-4,5-dihydro-1H-1,2,4-triazol-1-yl]-2-methoxy-N-[2-(trifluoromethyl)benzyl]benzamide]
71 | 83.1 |  |  | O=C(NC1(c2ccccc2C(F)(F)F)CC1)c1ccc(-n2nc(-c3c(F)cccc3Cl)[nH]c2=O)cc1 [Example-24, 4-(3-(2-Chloro-6-fluorophenyl)-5-oxo-4,5-dihydro-1H-1,2,4-triazol-1-yl)-N-(1-(2-(trifluoromethyl)phenyl)cyclopropyl)benzamide]
18 | 19 |  |  | O=c1[nH]c(-c2c(F)cccc2Cl)nn1-c1ccc(-c2ccc(C(F)(F)F)nc2)cc1 [Example-2, 5-(2-Chloro-6-fluorophenyl)-2-{4-[6-(trifluoromethyl)pyridin-3-yl]phenyl}-2,4-dihydro-3H-1,2,4-triazol-3-one]
72.7 | 96.3 |  |  | COc1cc(-n2nc(-c3c(Cl)cccc3Cl)[nH]c2=O)ccc1C(=O)Nc1ccc(S(C)(=O)=O)cc1 [Example-67, 4-(3-(2,6-Dichlorophenyl)-5-oxo-4,5-dihydro-1H-1,2,4-triazol-1-yl)-2-methoxy-N-(4-(methylsulfonyl)phenyl)benzamide]

From US10821100B2, “Triazolone compounds as mPGES-1 inhibitors” (Glenmark Pharmaceuticals S.A., priority 2012, dated 2020)
